Data reported in patent publication US6008258A (priority 1998, dated 1999).
“Also recorded” adds a separate entry of the source. Structures can show the parent of a compound that is named as a salt. Where two headings read alike, the source gives them in different places.

What was measured:
[1] = test system: formalin-induced nociceptive behavior; settings: pretreatment, literature, cited from earlier work
[2] = test system: NMDA-induced nociceptive behaviors; settings: Okano et al.; cited from earlier work
morphine tolerance = settings: Elliott et al.; cited from earlier work
spinal cord neurons = settings: Dickenson et al.; cited from earlier work
rat [3] = format: in vivo
humans = humans (Olsen); cited from earlier work
mice = mice (Smits); cited from earlier work
rat [4] = settings: rats (Ingoglia); cited from earlier work
NMDA-induced behaviors = assay: Intrathecal NMDA-induced nociceptive behaviors
rat [5] = assay: Formalin test (formalin-induced flinching), intrathecal drug
rat [6] = assay: Tail-flick test, intrathecal, cumulative dose-response and time course; settings: for antinociceptive (analgesic) effect in tail-flick test: up to cumulative 460 μg/rat; for blockade of antinociceptive effect of l-methadone: naloxone 30 μg/rat + l-methadone 80 μg/rat IT
[7] = test system: NMDA receptor (noncompetitive MK-801 site), rat forebrain; format: binding
[8] = biological target: NMDA receptor, rat forebrain; settings: used to calculate Ki; no footnote a; read-out: Kd (CGS19755), forebrain; cited from earlier work
NMDA receptors = settings: cited from earlier work
[9] = test system: mu-type of the opioid receptor; settings: Neil; cited from earlier work
[10] = test system: NMDA receptor in rat cortical membranes; settings: rat cortical membranes (Ebert); cited from earlier work
[11] = test system: NMDA-induced depolarization; settings: in vitro (Ebert), cited from earlier work
[12] = test system: pain syndromes unresponsive to morphine; settings: anecdotal case reports; cited from earlier work

Which results are given for 3-amino-5-phosphonovaleric acid [APV]?
effect on nociceptive responses in formalin test [1]: reduces; antagonism of NMDA-induced nociceptive behaviors [2]: antagonized

Which “effect on development of tolerance to morphine” value (“effect on development” below) (morphine tolerance) does the source give for `COc1ccc2c(c1)[C@]13CCCC[C@@H]1[C@H](C2)N(C)CC3` [Dextromethorphan] here?
The value was “attenuates and reverses”.

What about the “effect on nociceptive responses in formalin test” value (“effect on nociceptive responses” for short) [1] of the same compound?
The value was “attenuates nociceptive responses”.

And the “effect on nociceptive responses” value ([1]; listed as dextromethorphan)?
The value was “reduces”.

What about the “effect on wind up of spinal cord neurons” value (spinal cord neurons) of the same compound?
The value was “suppresses”.

For `CCC(=O)C(C[C@H](C)N(C)C)(c1ccccc1)c1ccccc1` [d-Methadone, (S)-(+)-methadone], which “development of morphine tolerance” value (rat [3]; rat, in vivo) is on record?
The value was “prevented the development of morphine tolerance”.

What about the “effect of d-methadone alone on morphine ED50” value (rat [3]; rat, in vivo) of the same compound?
The value was “did not alter”.

What about the “morphine ED50 in d-methadone+morphine group” value (rat [3]; rat, in vivo) of the same compound?
Its value is “not significantly increased”.

And the “analgesic potency vs l-methadone (less potent)” value (humans)?
Its value is 50 fold.

What about the opioid-like locomotor activity (mice) of the same compound?
The opioid-like locomotor activity was “does not produce opioid-like locomotor activity”.

What about the “activity following intraventricular administration” value (rat [4]) of the same compound?
The value was “inactive”.

And the “blockade of an ED99 dose of NMDA” value (NMDA-induced behaviors; 250 μg (809 nmol)/rat, NMDA 2.4 nmol/rat)?
Its value is “completely blocked”.

What about the “increase of NMDA ED50” value (NMDA-induced behaviors; d-methadone 250 μg/rat) of the same compound?
The value was “more than 3 fold”.

What about the “effect on phase 2 flinching vs saline” value (rat [5]; 250 μg/rat IT, with or without naloxone 30 μg/rat) of the same compound?
The value was “significantly reduce”.

And the “decrease in phase 2 flinching” value (rat [5]; 320 μg/rat spinal)?
Its value is 68%.

What about the “effect on number of flinches, phase 1” value (rat [5]; IT 32, 160, 320 μg/rat, 0-10 minutes) of the same compound?
The value was “did not affect; also recorded: not during phase 1”.

What about the “effect on flinching behavior, phase 2” value (rat [5]; IT 32, 160, 320 μg/rat, 10-60 minutes) of the same compound?
The value was “dose-dependently reduces”.

And the “antinociceptive (analgesic) effect in tail-flick test” value (rat [6]; intrathecal)?
Its value is “no antinociceptive effects”.

What about the “antinociceptive (analgesic) effect in tail-flick test” value (rat [6]; intrathecal, listed as d-methadone) of the same compound?
The value was “None of the rats that received d-methadone became an analgesic responder; also recorded: no analgesia”.

For `O=C1CC[C@@]2(O)[C@H]3Cc4ccc(O)c5c4[C@@]2(CCN3CC2CC2)[C@H]1O5` [Naltrexone], which “displacement of [3H]MK-801 binding” value [7] is on record?
Its value is “did not displace”.

And the Ki ([7]; read-out: [3H]MK-801 Ki, forebrain)?
Its Ki is over 100 µM.

With `O=C(O)[C@@H]1C[C@H](CP(=O)(O)O)CCN1` [CGS19755] as the compound, how does the Kd [8] read?
The Kd was 0.024 µM.

With `CNC1(c2ccccc2Cl)CCCCC1=O` (centres unmarked) [Ketamine] as the compound, how does the “effect on nociceptive responses” value [1] read?
The value was “reduces”.

Which results are given for `CN1CC[C@]23c4c5ccc(O)c4O[C@H]2[C@@H](O)C=C[C@H]3[C@H]1C5` [Morphine]?
Morphine ED50 (95% CI) (rat [3]; SALINE + MORPHINE, Day 2 (so in the source)): 37.6 (28.5-56.7) ug/rat; Morphine ED50 (95% CI) (rat [3]; SALINE, Day 1): 1.0 (0.5-1.8) ug/rat; binding to NMDA receptors (NMDA receptors): do not bind to NMDA receptors

With `C[C@]12N[C@H](Cc3ccccc31)c1ccccc12` [MK-801, (+)-5 methyl-10,11-dihydro-5H-dibenzo[a,d]cyclo-hepten-5, 10-imine hydrogen maleate] as the compound, how does the “effect on development” value (morphine tolerance) read?
Its value is “attenuates and reverses”.

What about the “effect on nociceptive responses” value [1] of the same compound?
Its value is “reduces”.

Which results are given for `CCC(=O)C(C[C@@H](C)N(C)C)(c1ccccc1)c1ccccc1` [l-Methadone, (R)-(-)-methadone]?
time of peak analgesic effect (rat [6]; 40 μg/rat spinal, time course study): 15 min; ED50, tail-flick test (rat [6]; IT, cumulative dose-response): 15.6 ug/rat; antinociceptive (analgesic) effect in tail-flick test (rat [6]; intrathecal): dose-dependent antinociception; ED50, tail-flick antinociception (rat [6]; intrathecal, 95% CI 7.0-29.8): 15.6 μg/rat; approximately ED90 antinociceptive dose (rat [6]; spinal, tail-flick test): ~80 μg/rat

For `O=C(O)[C@@H]1C[C@H]2C[C@@H](CP(=O)(O)O)CC[C@H]2CN1` [LY274614], which “effect on development” value (morphine tolerance) is on record?
The value was “attenuates and reverses”.

What does the source list for `CN[C@H](CC(=O)O)C(=O)O` [NMDA, N-methyl-D-aspartate]?
ED99 dose of NMDA (NMDA-induced behaviors; intrathecal): 2.4 nmol/rat; NMDA ED50 (95% CI) (NMDA-induced behaviors; pretreatment with saline or d-methadone 250 μg/rat): 1.3 (1.0-1.6) nmol/rat IT

Which results are given for `CCC(=O)C(CC(C)N(C)C)(c1ccccc1)c1ccccc1` (racemic) [dl-Methadone]?
binding to mu-type of the opioid receptor [9]: binds preferentially; affinity for the NMDA receptor [10]: low μm affinity; effect on NMDA-induced depolarization [11]: reduced NMDA-induced depolarizations; effect on NMDA-induced depolarization ([11]; listed as racemic methadone): reduces NMDA-induced depolarization; management of pain syndromes unresponsive to morphine [12]: successful management

What does the source list for `C=CCN1CC[C@]23c4c5ccc(O)c4O[C@H]2C(=O)CC[C@@]3(O)[C@H]1C5` [Naloxone]?
reversal by naloxone of antinociceptive effect of d-methadone (rat [5]; naloxone 30 μg/rat + d-methadone 250 μg/rat IT): did not affect; also recorded: not reversed; also recorded: not blocked; effect of naloxone alone on base-line tail-flick latencies / antinociception (rat [6]; 30 μg/rat spinal): did not affect base-line tail-flick latencies or produce an antinociceptive (analgesic) response; blockade of antinociceptive effect of l-methadone (rat [6]): completely blocked; blockade of antinociceptive effect of l-methadone (rat [6]; listed as naloxone): completely blocked; also recorded: blocks; also recorded: effectively antagonized; duration of blockade of l-methadone effect (rat [6]; naloxone 30 μg/rat vs l-methadone 80 μg/rat): at least 75 minutes
